# Reference: PMC8287944, “5-Fluorouracil blocks quorum-sensing of biofilm-embedded methicillin-resistant Staphylococcus aureus in mice” (Nucleic Acids Research, 2021)
# Experiments:
# V. harveyi (BB170) = assay: V. harveyi BB170 bioluminescence (5 h); type: cell-based, Vibrio harveyi; details: V. harveyi BB170, 5 h
# Experimental: The test strain V. harveyi BB170 was grown overnight in Luria Marine (LM)-medium ([25]). The culture was 1:500 diluted in AB-medium (0.3 M NaCl, 10 mM potassium phosphate, 1 mM L-arginine, […], 1% glycerol) the next day, and then challenged with various chemical compounds. After 5 h of shaking at 200 rpm at 30°C, the bioluminescence of BB170 was quantified on a GENios Pro plate reader (Tecan, Männedorf, Switzerland).
# Figure 3. Bioactivity of hit candidates against Vibrio harveyi. Effect on bacterial growth. V. harveyi (BB170) was grown in the presence of individual compounds (A–H) for 5 h and the bioluminescence (green circles) was quantified. After a total of 24 h, bacterial growth (+) was evaluated by measuring the optical density (OD600). The gray translucent background in (C) represents the narrow range within which the compound reduces bioluminescence without affecting growth.
# MRSA ATCC 43300 [1] = assay: MRSA 43300 growth; type: cell-based, Staphylococcus aureus; details: 0.1 μM 5-FU
# Experimental: (§1) Figure 4. Bioactivity of 5-FU against MRSA ATCC 43300. (A) Quorum sensing-associated AI-2 activity of MRSA 43300 grown for 3 h with different 5-FU concentrations. (B) Effect of different 5-FU concentrations on MRSA 43300 growth. (C) Interference with biofilm formation. (D) Effect on adherent MRSA 43300. Data points represent three biological replicates expressed as mean ± SD (**P < 0.01; ***P < 0.001; ****P < 0.0001).
# MRSA ATCC 43300 [2] = assay: Adherent MRSA quantification (CFU plating); type: cell-based, Staphylococcus aureus; details: 0.1 μM 5-FU, 24 h
# Experimental: To quantify the amount of adherent bacteria, 2 – 3 × 10^5 CFU/ml MRSA were grown for 24 h in the presence of different 5-FU concentrations. After incubation under static conditions at 37°C, the plate was washed twice with PBS. Adherent bacteria were removed with 100 μl PBS and appropriate dilutions were plated on Mueller-Hinton agar (Becton Dickinson AG, Allschwil, Switzerland) plates overnight at 37°C. Three independent experiments were performed, each performed in triplicate, and the mean values were calculated. Dimethyl sulfoxide (DMSO) was used as a control.
# as §1
# E. coli = E. coli quorum sensing / AI-2 activity in supernatant; type: cell-based, Escherichia coli; details: Supplementary Figure S3
# Experimental: The test strain E. coli RP437 was grown overnight in LB. Its optical density was measured on a Novaspec II photometer (Pharmacia, Freiburg, Germany) and the culture was diluted to a final OD600 of 0.1 the next morning. The bacteria were challenged with test compounds for 3 h, and then AI-2 activity in the culture supernatant was determined. Specifically, 90 μl of the AI-2 reporter strain V. harveyi (MM32), grown overnight in LM medium and then prediluted 1:500 in AB-medium containing 30 μg/ml kanamycin, was added to 10 μl of E. coli supernatant (10% v/v) in black-bottomed Fluotrac 200 96-well plates (Greiner Bio-One, Frickenhausen, Germany), which were shaken at 200 rpm, at 30°C. The AI-2 induced bioluminescence of MM32 was measured after 5 h. […]
# Supplementary Figure 3 | Effect of hit candidates on Escherichia coli. […] AI-2-secreting E. coli (XL10-Gold) was grown for 3 h and AI-2 activity in the supernatant was quantified. […] Optical density (OD600) was measured after 24 h as a measure of cell growth. […] Then, planktonic cell growth (OD600) was measured and biofilm formation was quantified by means of crystal violet staining. (d) AI-2-secreting E. coli (RP437) was grown for 3 h in the presence of different compounds (10 µM), and then AI-2 activity in the supernatant was quantified. Optical density (OD600) was measured after 24 h.
smiles,measurement,setting,value
O=c1[nH]cc(F)c(=O)[nH]1 [5-Fluorouracil],Effect on V. harveyi bioluminescence,V. harveyi (BB170),reduced the bioluminescence
same,Bacterial growth of MRSA,MRSA ATCC 43300 [1],significantly decreased bacterial growth
same,Number of adherent MRSA,MRSA ATCC 43300 [2],reduced the number of adherent MRSA
same,Effect on E. coli quorum sensing,E. coli,interfered with E. coli quorum sensing
